{"source": "paper PMC4979872", "about": "“Synthesis, fluorescence properties and the promising cytotoxicity of pyrene–derived aminophosphonates” (Beilstein Journal of Organic Chemistry, 2016)", "key": {"[1]": {"system": "HCT116 human colorectal carcinoma cell line", "experiment": "MTT cytotoxicity assay on HCT116 cells", "type": "cell-based", "conditions": "24 h incubation, 5 to 600 µM, mean ± SEM of six experiments", "from_the_text": "(§1) The cytotoxic effects of dimethyl aminophosphonates 3Aa, 3Ab, 3Ac, 3Ad, 3Ai and dimethyl [hydroxy(pyren-1-yl)methyl]phosphonate (5A) were investigated with two human colorectal carcinoma cell lines: HT29 and HCT116 and also on the normal human lymphocytes. For this a standard MTT (3-(4,5-dimethylthiazol-2-yl)-2,5-diphenyltetrazolium bromide) test was used and results presented as IC50 values (i.e., the concentration of the compound that inhibits 50% growth). The activity of the tested compounds was studied in the concentration range from 5 to 600 µM. […]\n(§2) 2.1. Materials and methods\n(§3) MTT assay (3-(4,5-dimethylthiazol-2-yl)-2,5-diphenyltetrazolium bromide) facilitates the determination of the level of cell survival after the exposure of cells to potentially toxic substances. The cytotoxicity level of studied compounds was evaluated by determining the dose or concentration that induces a standard biological response. The assessment of the cytotoxic activity of the tested compounds was carried out based on IC50 values – the concentration of the compound which causes inhibition of cell proliferation by 50% as compared to the negative control. To determine the above concentration, was created graphs of cell viability expressed in percentages, depending on the concentrations of studied […]\n(§4) MTT (3(4,5-dimethylthiazol-2-yl)-2,5-diphenyltetrazolium bromide), lauryl sulfate (SLS), N,N-dimethylformamide (DMF), dimethyl sulfoxide (DMSO), penicillin-streptomycin solution stabilized, MEM non-essential amino acids solution, Histopaque 1077, and buffered saline (PBS) were purchased from Sigma Chemical Co. Foetal bovine serum (FBS), phytohemagglutinin (PHA), RPMI 1640 medium and Trypsin-EDTA were supplied by […]\n(§5) All other chemicals (chemical reagents, substrates, and solvents) were of the highest commercial grade available and were purchased from CytoGen and Sigma–Aldrich. […]\n(§6) The human colorectal carcinoma cell line (HCT116) and the human colorectal adenocarcinoma cell line (HT29) were obtained from the American Type Culture Collection (ATCC, Rockville, USA). The HCT116 cells were cultured in RPMI 1640 supplemented with FBS (10%) and antibiotics (1%): penicillin and streptomycin. The HT29 cells were cultured in RPMI 1640 medium supplemented with FBS (10%), antibiotics (1%): penicillin and streptomycin, and MEM non-essential amino acids solution (1%). The lymphocytes, HCT116 and HT29 cells were cultured at 37 °C in a humidified atmosphere of 95% air and 5% CO2.\n(§7) A MTT assay was used to assess cell survival after treatment with studied compounds. The MTT assay is a quantitative colorimetric method to determine cell proliferation after treatment with the tested compounds. It is widely used to estimate the cytotoxic effect of chemicals on different types of cells. MTT (3(4,5-dimethyl-2-thiazolyl)-2,5-diphenyl-2H-tetrazolium bromide) is a water-soluble tetrazolium salt, which is converted into an insoluble purple formazan by cleavage of the tertazolium ring by succinate dehydrogenase within the mitochondria. The formazan product is impermeable to the cell membranes and therefore it accumulates in living cells. The purple crystals were extracted into a solution for homogeneous staining and the absorbance was read on a spectrophotometer at 595 nm. The percent reduction of MTT was compared to controls (cells not exposed to tested compounds), which represented 100% MTT reduction. The assay was optimized for the cell lines and chemical compounds used in the experiments.\n(§8) The cancer cells and human lymphocytes were grown for 24 h on 96-well plates at a density of 6–8 × 10^3 cells/well and 8 × 10^5 cells/well, respectively. Then the cells were treated with the tested compounds for 24 h incubation periods in a volume of 50 μl per well for the lymphocytes and 100 μl per well for the HCT116, HT29 cells. Subsequently, a fresh MTT solution (lymphocytes, HCT116 and HT29: 20 μl, 5 mg/ml in sterile PBS) was added to each […]\n(§9) well for the next 4 h. […]"}, "[2]": {"system": "HT29 human colorectal adenocarcinoma cell line", "experiment": "MTT cytotoxicity assay on HT29 cells", "type": "cell-based", "conditions": "24 h incubation, 5 to 600 µM, mean ± SEM of six experiments", "from_the_text": "as §1, §2, §3, §4, §5, §6, §7, §8, §9"}, "[3]": {"system": "normal human lymphocytes", "experiment": "MTT cytotoxicity assay on normal human lymphocytes", "type": "cell-based", "conditions": "24 h incubation, 5 to 600 µM, mean ± SEM of six experiments", "from_the_text": "as §1, §2, §3, §4\nAll other chemicals (chemical reagents, substrates, and solvents) were of the highest commercial grade available and were purchased from CytoGen and Sigma–Aldrich.\nLymphocytes were isolated from the peripheral blood of healthy, non-smoking donors of both sexes by centrifugation in a density gradient of Histopaque 1077 (15 min., 300 × g) (blood was obtained from the Blood Donation Center in Lodz, Poland). The cells were suspended in the culture medium containing RPMI 1640, inactivated FBS (15%), penicillin and streptomycin (1%) and PHA (1%). […]\nThe lymphocytes, HCT116 […]\nand HT29 cells were cultured at 37 °C in a humidified atmosphere of 95% air and 5% CO2.\nas §7\nas §8, with “each well for the next 4 h. Purple crystals forming in the cancer cells after the reduction of MTT were dissolved by DMSO (100 μl/well). In the case of lymphocytes this was achieved by” for “each”"}}, "note": "pIC50: −log10 of the molar value.", "data": [{"compound": "O=P(OCc1ccccc1)(OCc1ccccc1)C(NCc1ccccc1)c1ccc2ccc3cccc4ccc1c2c34", "note": "(centres unmarked)", "values": [{"measurement": "melting point", "value": "100 to 101", "unit": "°C"}]}, {"compound": "O=P(O)(O)C(NCc1ccccc1)c1ccc2ccc3cccc4ccc1c2c34", "note": "(centres unmarked)", "values": [{"measurement": "melting point", "value": "235 to 236", "unit": "°C"}]}, {"compound": "COP(=O)(OC)C(NCc1ccccc1)c1ccc2ccc3cccc4ccc1c2c34", "note": "(centres unmarked) [Compound 3Aa]", "values": [{"measurement": "pIC50", "setting": "[1]; Homo sapiens, HCT-116, 24 h", "value": 4.54}, {"measurement": "pIC50", "setting": "[2]; Homo sapiens, HT-29, 24 h", "value": 4.53}, {"measurement": "pIC50", "setting": "[3]; Homo sapiens, Lymphocyte, 24 h", "value": 4.05}]}, {"compound": "COP(=O)(OC)C(Nc1ccccc1)c1ccc2ccc3cccc4ccc1c2c34", "note": "(centres unmarked) [Compound 3Ab]", "values": [{"measurement": "pIC50", "setting": "[1]; Homo sapiens, HCT-116, 24 h", "value": 4.15}, {"measurement": "pIC50", "setting": "[2]; Homo sapiens, HT-29, 24 h", "value": 3.98}, {"measurement": "pIC50", "setting": "[3]; Homo sapiens, Lymphocyte, 24 h", "value": 3.48}, {"measurement": "melting point", "value": "203 to 204", "unit": "°C"}]}, {"compound": "COP(=O)(OC)C(Nc1ccc(C)cc1)c1ccc2ccc3cccc4ccc1c2c34", "note": "(centres unmarked) [Compound 3Ac, dimethyl N-(4-methylphenyl)amino(pyren-1-yl)methylphosphonate]", "values": [{"measurement": "pIC50", "setting": "[1]; Homo sapiens, HCT-116, 24 h", "value": 4.80}, {"measurement": "pIC50", "setting": "[2]; Homo sapiens, HT-29, 24 h", "value": 4.80}, {"measurement": "pIC50", "setting": "[3]; Homo sapiens, Lymphocyte, 24 h", "value": 4.76}]}, {"compound": "COc1ccc(NC(c2ccc3ccc4cccc5ccc2c3c45)P(=O)(OC)OC)cc1", "note": "(centres unmarked) [Compound 3Ad, dimethyl N-(4-methoxyphenyl)amino(pyren-1-yl)methylphosphonate]", "values": [{"measurement": "pIC50", "setting": "[1]", "value": 4.68}, {"measurement": "pIC50", "setting": "[1]; Homo sapiens, HCT-116, 24 h", "value": "~4.70"}, {"measurement": "pIC50", "setting": "[2]", "value": 4.62}, {"measurement": "pIC50", "setting": "[2]; Homo sapiens, HT-29, 24 h", "value": "~4.70"}, {"measurement": "pIC50", "setting": "[3]", "value": 3.64}, {"measurement": "pIC50", "setting": "[3]; Homo sapiens, Lymphocyte, 24 h", "value": "~3.64"}]}, {"compound": "COP(=O)(OC)C(Nc1cccc(C)c1)c1ccc2ccc3cccc4ccc1c2c34", "note": "(centres unmarked) [Compound 3Ai, dimethyl N-(m-methylphenyl)amino(pyren-1-yl)methylphosphonate]", "values": [{"measurement": "pIC50", "setting": "[1]; Homo sapiens, HCT-116, 24 h", "value": 4.69}, {"measurement": "pIC50", "setting": "[2]; Homo sapiens, HT-29, 24 h", "value": 4.24}, {"measurement": "pIC50", "setting": "[3]; Homo sapiens, Lymphocyte, 24 h", "value": 4.12}, {"measurement": "melting point", "value": "209 to 210", "unit": "°C"}]}, {"compound": "Cc1ccc(NC(c2ccc3ccc4cccc5ccc2c3c45)P(=O)(O)O)cc1", "note": "(centres unmarked) [Compound 4c]", "values": [{"measurement": "pIC50", "setting": "[1]; Homo sapiens, HCT-116, 24 h", "value": "~4.82"}, {"measurement": "pIC50", "setting": "[2]; Homo sapiens, HT-29, 24 h", "value": "~4.82"}, {"measurement": "pIC50", "setting": "[3]; Homo sapiens, Lymphocyte, 24 h", "value": "~4.77"}, {"measurement": "melting point", "value": "210 to 211", "unit": "°C"}]}, {"compound": "COP(=O)(OC)C(O)c1ccc2ccc3cccc4ccc1c2c34", "note": "(centres unmarked) [Compound 5A, dimethyl hydroxy(pyren-1-yl)methylphosphonate]", "values": [{"measurement": "pIC50", "setting": "[1]; Homo sapiens, HCT-116, 24 h", "value": 4.39}, {"measurement": "pIC50", "setting": "[2]; Homo sapiens, HT-29, 24 h", "value": 4.59}, {"measurement": "pIC50", "setting": "[3]; Homo sapiens, Lymphocyte, 24 h", "value": 3.87}]}]}
